Seven compounds from ChEMBL document CHEMBL4043123, “α-Geminal disubstituted pyrrolidine iminosugars and their C-4-fluoro analogues: Synthesis, glycosidase inhibition and molecular docking studies” (Bioorg Med Chem, 2017) can be followed below.

Activity calls are given as the source filed them. The calls are words filed in the database; no cut-off is given here.

Assay [1] has as its system Oryza sativa. Put plainly: Inhibition of rice alpha-glucosidase at 1 mM pre-incubated for 1 hr followed by p-nitrophenyl-alpha-D-glucopyranoside substrate addition by fluorescence detection based assay.
The subject of assay [2] is Saccharomyces cerevisiae. Put plainly: Inhibition of yeast alpha-glucosidase at 1 mM pre-incubated for 1 hr followed by p-nitrophenyl-alpha-D-glucopyranoside substrate addition by fluorescence detection based assay.
The subject of assay [3] is Prunus dulcis. As to the kind of experiment: Inhibition of almond beta-glucosidase at 1 mM pre-incubated for 1 hr followed by p-nitrophenyl-beta-D-glucopyranoside, substrate addition by fluorescence detection based assay.
The target in assay [4] is T1, Alpha-galactosidase (Coffea arabica, UniProt Q42656). As to the kind of experiment: Inhibition of coffee beans alpha-galactosidase pre-incubated for 1 hr followed by p-nitrophenyl-alpha-D-galactopyranoside substrate addition by fluorescence detection based assay.
T1 sequence (Q42656 whole entry): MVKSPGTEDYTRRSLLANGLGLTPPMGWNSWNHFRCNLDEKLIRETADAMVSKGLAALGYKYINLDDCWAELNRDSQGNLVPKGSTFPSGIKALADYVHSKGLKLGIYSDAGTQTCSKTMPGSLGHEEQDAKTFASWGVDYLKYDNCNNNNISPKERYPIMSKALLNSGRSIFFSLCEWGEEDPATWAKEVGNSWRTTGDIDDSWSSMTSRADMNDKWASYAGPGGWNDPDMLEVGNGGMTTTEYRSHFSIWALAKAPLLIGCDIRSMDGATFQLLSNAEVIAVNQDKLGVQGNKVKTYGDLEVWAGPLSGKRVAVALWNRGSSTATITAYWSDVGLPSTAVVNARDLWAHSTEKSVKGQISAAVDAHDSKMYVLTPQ
The test system of assay [5] is Escherichia coli. As to the kind of experiment: Inhibition of Escherichia coli beta-galactosidase at 1 mM pre-incubated for 1 hr followed by p-nitrophenyl-beta-D-galactopyranoside substrate addition by fluorescence detection based assay.
In assay [6] the target is T2, Alpha-mannosidase (Canavalia ensiformis) (UniProt C0HJB3).
T2 sequence (whole entry): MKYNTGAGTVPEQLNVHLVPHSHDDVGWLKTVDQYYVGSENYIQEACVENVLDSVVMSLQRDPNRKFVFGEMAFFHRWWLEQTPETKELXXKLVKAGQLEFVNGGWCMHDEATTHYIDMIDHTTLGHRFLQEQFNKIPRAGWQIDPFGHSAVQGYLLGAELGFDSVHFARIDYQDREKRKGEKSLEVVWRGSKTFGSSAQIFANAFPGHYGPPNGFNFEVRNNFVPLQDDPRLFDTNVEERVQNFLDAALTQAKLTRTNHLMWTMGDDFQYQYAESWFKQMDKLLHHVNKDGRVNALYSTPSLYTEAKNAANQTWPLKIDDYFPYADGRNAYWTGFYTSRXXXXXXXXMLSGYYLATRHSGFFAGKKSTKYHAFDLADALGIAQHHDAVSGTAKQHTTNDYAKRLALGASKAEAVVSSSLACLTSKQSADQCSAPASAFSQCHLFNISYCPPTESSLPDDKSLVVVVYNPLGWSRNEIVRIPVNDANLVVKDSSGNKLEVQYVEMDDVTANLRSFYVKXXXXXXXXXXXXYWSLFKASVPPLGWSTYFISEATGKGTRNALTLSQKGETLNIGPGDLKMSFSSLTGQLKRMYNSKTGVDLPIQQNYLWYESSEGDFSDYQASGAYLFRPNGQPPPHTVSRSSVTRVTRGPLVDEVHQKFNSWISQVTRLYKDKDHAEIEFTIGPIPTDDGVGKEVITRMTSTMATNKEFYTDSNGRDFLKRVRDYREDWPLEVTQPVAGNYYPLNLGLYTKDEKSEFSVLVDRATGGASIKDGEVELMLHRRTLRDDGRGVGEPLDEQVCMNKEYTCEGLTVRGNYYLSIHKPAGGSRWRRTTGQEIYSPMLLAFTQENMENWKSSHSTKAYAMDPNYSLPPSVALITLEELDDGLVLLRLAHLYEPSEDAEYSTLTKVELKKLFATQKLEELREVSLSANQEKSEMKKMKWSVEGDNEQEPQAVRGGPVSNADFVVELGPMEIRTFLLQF
Put plainly: Inhibition of jack beans alpha-mannosidase […] at 1 mM pre-incubated for 1 hr followed by […] substrate addition by fluorescence detection based assay.

Assay [7] has as its target T1, Alpha-galactosidase. As to the kind of experiment: Competitive inhibition of coffee beans alpha-galactosidase pre-incubated for 1 hr followed by p-nitrophenyl-alpha-D-galactopyranoside substrate addition by fluorescence detection based assay.
Assay [8] is described as follows: Inhibition of rice alpha-glucosidase pre-incubated for 1 hr followed by p-nitrophenyl-alpha-D-glucopyranoside substrate addition by fluorescence detection based assay. On the set-up: species or system Oryza sativa.
The nature of assay [9]: Competitive inhibition of almond beta-glucosidase pre-incubated for 1 hr followed by p-nitrophenyl-beta-D-glucopyranoside, substrate addition by fluorescence detection based assay. The arrangement: species or system Prunus dulcis.
Assay [10] concerns the target Alpha-galactosidase (Coffea arabica) (UniProt Q42656). Put plainly: Inhibition of coffee beans alpha-galactosidase at 1 mM pre-incubated for 1 hr followed by p-nitrophenyl-alpha-D-galactopyranoside substrate addition by fluorescence detection based assay.
A short description of assay [11]: Competitive inhibition of Escherichia coli beta-galactosidase pre-incubated for 1 hr followed by p-nitrophenyl-beta-D-galactopyranoside substrate addition by fluorescence detection based assay.
Assay [12] is described as follows: Inhibition of yeast alpha-glucosidase pre-incubated for 1 hr followed by p-nitrophenyl-alpha-D-glucopyranoside substrate addition by fluorescence detection based assay. The arrangement: species or system Saccharomyces cerevisiae.
Assay [13] can be described thus: Inhibition of almond beta-glucosidase pre-incubated for 1 hr followed by p-nitrophenyl-beta-D-glucopyranoside, substrate addition by fluorescence detection based assay. On the set-up: species or system Prunus dulcis.

In general, IC50 refers to the concentration that inhibits the measured activity by half. Low values mean greater potency, high ones weaker potency. For orientation: Ki means the equilibrium dissociation constant of an inhibitor or competing ligand from its target. Lower therefore signals tighter binding.

Chain of Alpha-galactosidase (Coffea arabica) (Q42656 16-378 limits assumed): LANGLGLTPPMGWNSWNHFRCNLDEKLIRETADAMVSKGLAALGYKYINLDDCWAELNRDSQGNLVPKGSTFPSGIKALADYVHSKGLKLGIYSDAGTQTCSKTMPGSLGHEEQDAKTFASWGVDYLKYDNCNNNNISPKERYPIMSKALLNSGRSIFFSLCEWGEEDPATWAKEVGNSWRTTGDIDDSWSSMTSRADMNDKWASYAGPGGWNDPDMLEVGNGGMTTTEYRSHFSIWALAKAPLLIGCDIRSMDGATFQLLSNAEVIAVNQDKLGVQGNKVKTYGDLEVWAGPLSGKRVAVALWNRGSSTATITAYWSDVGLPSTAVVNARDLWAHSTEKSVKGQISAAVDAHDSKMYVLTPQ

As for `O=C(O)[C@@]1(CO)NC[C@H](F)[C@H]1O`, the inhibition entry in assay [1], in [2], in assay [3], in assay [5] and in assay [6] was “inactive” each time. For the same compound, 392000 nM corresponded to half-maximal inhibition in assay [4] (IC50). Further, in assay [4], the Ki amounted to 364000 nM.

With `OCC1(CO)NC[C@@H](O)[C@H]1O`, the inhibition entry in assay [1], in assay [2], in [3], in assay [5] and in assay [6] was “inactive” throughout. The compound also registered a concentration for half-maximal inhibition (IC50) in assay [7] of 16 nM. The same compound returned a Ki in assay [7] of 8 nM.

With `OCC1(CO)NC[C@H](F)[C@H]1O`, the values for the 50% inhibitory concentration (IC50) in assay [8] and in assay [9] were 463000 nM and 184 nM, respectively. Further, the values for the Ki in assay [8] and in assay [9] were 376000 nM and 144 nM, respectively. The inhibition result in assay [2], in assay [10], in assay [5] and in [6] was “inactive” in each case.

On to `O=C(O)[C@]1(CO)NC[C@H](F)[C@H]1O`, for which the inhibition result in assay [1], in assay [2], in assay [3], in assay [10] and in assay [6] was “inactive” each time. Also, the IC50 in [11] was found to be 65 nM. Besides, the Ki in assay [11] amounted to 51 nM.

For the compound `OCCN1C[C@H](O)[C@@H](O)[C@H](O)[C@H]1CO` [MIGLITOL], the IC50 in assay [8] was 50 nM. Further, in [8], the Ki was found to be 28 nM. The inhibition entry in assay [2], in assay [3], in assay [10], in assay [5] and in assay [6] was “inactive” in each case.

As to `O=C(O)[C@]1(CO)NC[C@@H](O)[C@H]1O`, the inhibition entry in assay [1], in assay [3], in [10], in [5] and in assay [6] was “inactive” in each case. For the same compound, it took 763000 nM to reach half-maximal inhibition in [12] (IC50). Moreover, in [12], the Ki stood at 619000 nM.

For the compound `O=C(O)[C@@]1(CO)NC[C@@H](O)[C@H]1O`, the inhibition entry in [1], in assay [2], in assay [5] and in assay [6] was “inactive” throughout. For the same compound, the results for the IC50 in assay [13] and in [7] were 445000 nM and 79 nM, respectively. For the same compound, the Ki in assay [13] is 349000 nM; in [7], 62 nM.
